# Assay results published in PubChem BioAssay (NCI).
#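 Step 1: Grow cells in 96-well plates. Step 2: Expose to compound for 48 hours at 5 concentrations. Step 3: Interpolate endpoints linearly; if unreached, use highest concentration. Abbreviation: GI50, concentration required for 50% inhibition of growth. TGI is the concentration that stops growth completely.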
# How the values were obtained:
# Experiment in all cases: growth of human tumour cells (NCI), 48 h
# [1] = system: NCI-H522 lung
# [2] = system: SNB-19 CNS
# [3] = system: U251 CNS
# [4] = system: HL-60(TB) leukemia
# [5] = system: SF-539 CNS
# [6] = system: RPMI-8226 leukemia
# [7] = system: OVCAR-4 ovarian
# [8] = system: MCF7 breast
# [9] = system: LOX IMVI melanoma
# [10] = system: K-562 leukemia
# [11] = system: ACHN renal
# [12] = system: 786-0 renal
# [13] = system: DU-145 prostate
# [14] = system: RXF 393 renal
# [15] = system: CAKI-1 renal
# [16] = system: CCRF-CEM leukemia
# [17] = system: M14 melanoma
# [18] = system: OVCAR-5 ovarian
# [19] = system: UO-31 renal
# [20] = system: MDA-MB-231 breast
# [21] = system: HCT-15 colon
# [22] = system: BT-549 breast
# [23] = system: SK-MEL-2 melanoma
# [24] = system: IGROV1 ovarian
# [25] = system: SK-OV-3 ovarian
# [26] = system: HCT-116 colon
# [27] = system: SF-295 CNS
# [28] = system: HS 578T breast
# [29] = system: NCI/ADR-RES ovarian
# [30] = system: SN12C renal
# [31] = system: COLO 205 colon
# [32] = system: A549 NSCLC
# [33] = system: MDA-MB-435
# [34] = system: MDA-N
# [35] = system: UACC-62 melanoma
# [36] = system: HCC-2998 colon
# [37] = system: OVCAR-8 ovarian
# [38] = system: HOP-62 NSCLC
# [39] = system: EKVX NSCLC
# [40] = system: SF-268 CNS
# [41] = system: SK-MEL-5 melanoma
# [42] = system: SR leukemia
# [43] = system: PC-3 prostate
# [44] = system: KM12 colon
# [45] = system: HOP-92 NSCLC
# [46] = system: SK-MEL-28 melanoma
# [47] = system: SNB-75 CNS
# [48] = system: TK-10 renal
# [49] = system: HT29 colon
# [50] = system: OVCAR-3 ovarian
# [51] = system: NCI-H226 lung
# [52] = system: NCI-H23 lung
# [53] = system: MALME-3M melanoma
# [54] = system: SW-620 colon
# [55] = system: NCI-H460 lung
# [56] = system: A498 renal
# [57] = system: MOLT-4 leukemia
# [58] = system: UACC-257 melanoma
# [59] = system: T-47D breast
structure (smiles),measurement,setting,value
CN(NC(=O)CC(=O)NN(C)C(=S)c1ccccc1)C(=S)c1ccccc1,GI50,[1],69.9 µM
same,TGI,[1],> 100 µM
same,TGI,[2],> 100 µM
same,GI50,[3],49.8 µM
same,TGI,[3],> 100 µM
same,GI50,[4],> 70.7 µM
same,TGI,[4],> 100 µM
same,TGI,[5],> 100 µM
same,TGI,[6],> 100 µM
same,GI50,[7],> 71.2 µM
same,TGI,[7],> 100 µM
same,GI50,[8],< 10 nM
same,TGI,[8],> 100 µM
same,TGI,[9],> 100 µM
same,GI50,[10],40.8 µM
same,TGI,[10],> 100 µM
same,GI50,[11],73.9 µM
same,TGI,[11],> 100 µM
same,GI50,[12],56.3 µM
same,TGI,[12],> 100 µM
same,GI50,[13],> 59.2 µM
same,TGI,[13],> 100 µM
same,GI50,[14],> 61.1 µM
same,TGI,[14],> 100 µM
same,GI50,[15],> 55.7 µM
same,TGI,[15],> 100 µM
same,GI50,[16],64.7 µM
same,TGI,[16],> 100 µM
same,GI50,[17],> 73.7 µM
same,TGI,[17],> 100 µM
same,TGI,[18],> 100 µM
same,GI50,[19],14.6 µM
same,TGI,[19],> 89.6 µM
same,GI50,[20],> 100 µM
same,TGI,[20],> 100 µM
same,GI50,[21],32.1 µM
same,TGI,[21],> 100 µM
same,GI50,[22],88.7 µM
same,TGI,[22],> 100 µM
same,GI50,[23],8.77 µM
same,TGI,[23],> 100 µM
same,TGI,[24],> 100 µM
same,TGI,[25],> 100 µM
same,TGI,[26],> 100 µM
same,TGI,[27],> 100 µM
same,GI50,[28],19.2 µM
same,TGI,[28],> 100 µM
same,GI50,[29],55.3 µM
same,TGI,[29],> 100 µM
same,GI50,[30],> 100 µM
same,TGI,[30],> 100 µM
same,TGI,[31],> 100 µM
same,GI50,[32],16.7 µM
same,TGI,[32],> 100 µM
same,GI50,[33],> 84.4 µM
same,TGI,[33],> 100 µM
same,TGI,[34],> 100 µM
same,TGI,[35],> 100 µM
same,TGI,[36],> 100 µM
same,GI50,[37],> 66.7 µM
same,TGI,[37],> 100 µM
same,GI50,[38],> 69.2 µM
same,TGI,[38],> 100 µM
same,TGI,[39],> 100 µM
same,GI50,[40],67.2 µM
same,TGI,[40],> 100 µM
same,GI50,[41],49.1 µM
same,TGI,[41],> 100 µM
same,TGI,[42],> 100 µM
same,GI50,[43],51.5 µM
same,TGI,[43],> 100 µM
same,GI50,[44],65.1 µM
same,TGI,[44],> 100 µM
same,TGI,[45],> 100 µM
same,GI50,[46],> 72.8 µM
same,TGI,[46],> 100 µM
same,GI50,[47],> 54.6 µM
same,TGI,[47],> 100 µM
same,TGI,[48],> 100 µM
same,TGI,[49],> 100 µM
same,TGI,[50],> 100 µM
same,TGI,[51],> 100 µM
same,GI50,[52],> 87.4 µM
same,TGI,[52],> 100 µM
same,GI50,[53],> 69.5 µM
same,TGI,[53],> 100 µM
same,TGI,[54],> 100 µM
same,GI50,[55],84.3 nM
same,TGI,[55],> 100 µM
FC(F)(F)c1cccc(COCCN2CCN(Cc3cccc(C(F)(F)F)c3)CC2)c1,TGI,[1],26.5 µM
same,TGI,[2],29.4 µM
same,TGI,[3],34.5 µM
same,TGI,[4],> 100 µM
same,TGI,[5],39 µM
same,TGI,[7],32.1 µM
same,TGI,[56],28.8 µM
same,TGI,[8],31.7 µM
same,TGI,[10],> 100 µM
same,TGI,[57],41.9 µM
same,TGI,[11],29.1 µM
same,TGI,[12],29.5 µM
same,TGI,[13],32.4 µM
same,TGI,[15],31.3 µM
same,TGI,[58],35.5 µM
same,TGI,[16],46.6 µM
same,TGI,[17],94.6 µM
same,TGI,[18],31.6 µM
same,TGI,[59],39.1 µM
same,TGI,[19],24.9 µM
same,TGI,[20],44.7 µM
same,TGI,[21],31.5 µM
same,TGI,[22],29.6 µM
same,TGI,[24],30.3 µM
same,TGI,[25],31.1 µM
same,TGI,[26],34.9 µM
same,TGI,[27],37.5 µM
same,TGI,[28],38.2 µM
same,TGI,[29],39.1 µM
same,TGI,[30],33 µM
same,TGI,[31],42.3 µM
same,TGI,[32],30.9 µM
same,TGI,[34],34.4 µM
same,TGI,[35],28.6 µM
same,TGI,[36],32.7 µM
same,TGI,[37],41.2 µM
same,TGI,[38],42.1 µM
same,TGI,[39],23.4 µM
same,TGI,[40],30.3 µM
same,TGI,[41],29.4 µM
same,TGI,[42],> 100 µM
same,TGI,[43],21.7 µM
same,TGI,[44],35.8 µM
same,TGI,[46],34.6 µM
same,TGI,[47],26.3 µM
same,TGI,[48],27.4 µM
same,TGI,[49],44.6 µM
same,TGI,[50],42.9 µM
same,TGI,[51],35.8 µM
same,TGI,[52],41.1 µM
same,TGI,[53],22.5 µM
same,TGI,[54],28.3 µM
same,TGI,[55],34.7 µM
O=C1C=C(N2CCCC2)C(=O)c2c(O)ccc(O)c21,TGI,[2],> 10 µM
same,TGI,[3],> 1 µM
same,TGI,[4],> 10 µM
same,TGI,[5],> 10 µM
same,TGI,[56],> 10 µM
same,TGI,[8],> 10 µM
same,TGI,[9],> 10 µM
same,TGI,[10],> 10 µM
same,TGI,[57],> 10 µM
same,TGI,[11],> 10 µM
same,TGI,[12],> 10 µM
same,TGI,[13],> 10 µM
same,TGI,[14],> 10 µM
same,TGI,[58],> 10 µM
same,TGI,[16],5.19 µM
same,TGI,[17],> 10 µM
same,TGI,[18],> 10 µM
same,TGI,[59],> 10 µM
same,TGI,[19],> 10 µM
same,TGI,[20],> 10 µM
same,TGI,[21],> 10 µM
same,TGI,[22],> 10 µM
same,TGI,[23],> 10 µM
same,TGI,[24],> 10 µM
same,TGI,[25],> 10 µM
same,TGI,[27],> 10 µM
same,TGI,[28],> 10 µM
same,TGI,[30],> 10 µM
same,TGI,[32],> 10 µM
same,TGI,[33],> 1 µM
same,TGI,[34],> 10 µM
same,TGI,[35],> 10 µM
same,TGI,[36],> 10 µM
same,TGI,[37],> 10 µM
same,TGI,[38],> 10 µM
same,TGI,[39],> 10 µM
same,TGI,[40],> 10 µM
same,TGI,[41],> 10 µM
same,TGI,[42],> 1 µM
same,TGI,[43],> 10 µM
same,TGI,[44],> 10 µM
same,TGI,[45],> 10 µM
same,TGI,[46],> 10 µM
same,TGI,[47],> 10 µM
same,TGI,[48],> 10 µM
same,TGI,[49],> 10 µM
same,TGI,[50],> 10 µM
same,TGI,[51],> 10 µM
same,TGI,[52],> 1 µM
same,TGI,[53],> 10 µM
same,TGI,[54],> 10 µM
same,TGI,[55],> 10 µM
